Measurements from article PMC5140066, “Electrophysiological Characteristics of Human iPSC-Derived Cardiomyocytes for the Assessment of Drug-Induced Proarrhythmic Potential” (PLoS ONE, 2016).
One block for each compound: values may come before it.

Tests used:
[1] = tested on: human induced pluripotent stem cell-derived cardiomyocytes (hiPSC-CMs); assay: Field potential recording of hiPSC-CM sheets on multi-electrode array (MEA); assay type: cell-based; details: for Use (rate) dependence of FPD prolongation: from FPD-ISI plots; for Effect on FPD: cumulative application
Protocol: The cells were thawed and suspended in iCell Cardiomyocytes Plating Medium (Cellular Dynamics International), then plated (approximately 2 × 10^6 cells/well) in 6-well tissue-culture plates coated with 0.1% gelatin. After two days of incubation at 37°C under an atmosphere of 5% CO2, the plating medium was replaced with iCell Cardiomyocytes Maintenance Medium (Cellular Dynamics International); this medium was used as the culture medium throughout the experiments and was replaced every 1 to 3 days. The cells were cultured for 7 to 14 days in a 5% CO2 incubator at 37°C and then re-plated onto MEA probes (MED-P515A or MED-PG515A; Alpha Med Scientific, Osaka, Japan).
The recording areas of the MEA probes were coated with fibronectin (Becton Dickinson, Franklin Lakes, NJ, USA; Invitrogen, Carlsbad, CA, USA; Corning, Corning, NY, USA). Fibronectin was dissolved in distilled water or Dulbecco's phosphate-buffered saline (PBS) [−] to give 50 μg/mL, the recording areas were covered with 2 μL fibronectin solution, and then the MEA probes were incubated at 37°C for at least 1 h. […] After discarding the fibronectin solution from the MEA probes without complete drying, the cell suspension at a density of 3.0 × 10^4 cells in a 2 μL droplet was re-plated onto the fibronectin-coated area of each MEA probe and incubated for 1 to 3 h in a 5% CO2 incubator at 37°C. Each well of the MEA probes was then filled with maintenance medium at a volume of 1 mL/well. The medium was replaced every 1 to 3 days thereafter, and the cells were cultured for 5 to 14 days to obtain high density cardiomyocyte-sheets with spontaneous and synchronous electrical activities.
Prior to recording FPs, the cardiomyocyte-sheets were equilibrated for at least 30 min in a 5% CO2 incubator at 37°C in fresh culture medium. The MEA probes were then transferred to a FP measurement apparatus (MED64 system; Alpha Med Scientific, Osaka, Japan) and covered with a lid through which humidified gas containing 5% CO2 was provided. […] Analogue FP signals from the spontaneously beating cardiomyocyte-sheets were acquired through a 0.1-Hz high-pass filter and a 5-kHz low-pass filter, and digitized at 20 kHz using the MED64 system. […] Compound stock solutions were prepared using DMSO at 1000-fold the target concentrations of the test compounds. The stock solutions were diluted with the maintenance medium to obtain the appropriate compound concentrations, then 1/10th to 1/50th the volume of the medium in the wells was exchanged with an equal volume of the compound-containing medium. The compounds were applied in a cumulative manner to the wells. The concentration of DMSO was 0.5–0.6% at the highest concentration of the test compounds. […] FPD (ms) and ISI (ms) were analyzed using Mobius QT software designed by WitWerx (Santa Cruz, CA, USA) (Fig 1b).
Baseline FP waveforms that met the following criteria were used for analysis. […] In the FP signals, EAD and TA were defined as slow negative spikes and a sharp deflection with an amplitude ≥ ± 100 μV, respectively (Fig 1c). EAD, TA or both usually appear during or after the second positive deflection. ISI, FPD and FPDcF were not calculated for concentrations in which EAD or TA were observed.
As previously mentioned, total 96 data equally from 4 facilities each were used for the analysis (24 data per facility). […] The root mean squared prediction error (RMSE) was used to show the level of accuracy of the equation predicted for the observed data (Fig 2). With categorical data analysis of FPD, inter-facilities differences were investigated with Kruskal-Wallis test (Fig 4).

[2] = tested on: human ventricular myocytes; design: method as in PMID 9709405; details: independent of the underlying pacing rate; cited from earlier work
[3] = tested on: guinea pig ventricular myocytes; design: method as in PMID 9709405; details: independent of the underlying pacing rate; cited from earlier work
[4] = tested on: dogs with subacute myocardial infarction; design: method as in PMID 11005588; details: cited from earlier work
[5] = cisapride 3 nM, all 4 facilities, n=24
[6] = cisapride 3 nM, facility A, n=6
[7] = cisapride 3 nM, facility B, n=6
[8] = cisapride 3 nM, facility C, n=6
[9] = cisapride 3 nM, facility D, n=6
[10] = cisapride 10 nM, all 4 facilities, n=24
[11] = cisapride 10 nM, all 4 facilities, n=24, listed as cisapride
[12] = cisapride 10 nM, facility A, n=6
[13] = cisapride 10 nM, facility B, n=6
[14] = cisapride 10 nM, facility C, n=6
[15] = cisapride 10 nM, facility D, n=6
[16] = cisapride 30 nM, all 4 facilities, n=24
[17] = cisapride 30 nM, facility A, n=6
[18] = cisapride 30 nM, facility B, n=6
[19] = cisapride 30 nM, facility C, n=6
[20] = cisapride 30 nM, facility D, n=6
[21] = cisapride 100 nM, all 4 facilities, n=24
[22] = cisapride 100 nM, facility D, n=6

Compound: Cc1cccc(CCN2CCC(C(=O)c3ccc(NS(C)(=O)=O)cc3)CC2)n1 [E-4031]
Slope factor of FPD-ISI regression, % change ([1]; E-4031 1 nM): 0.9347 | Slope factor of FPD-ISI regression, % change ([1]; E-4031 10 nM): 1.8977 | Slope factor of FPD-ISI regression, absolute FPD (ms) ([1]; E-4031 10 nM (sham 0.1653)): 0.3328 | Use (rate) dependence of FPD prolongation [1]: induced FPD prolongation in a reverse use-dependent manner

EADs and/or TAs ([1]; at concentrations up to 30 μM): not observed
Compound: CCS(=O)(=O)N(C)[C@H]1c2cc(C#N)ccc2OC(C)(C)[C@@H]1O (racemic) [Chromanol 293B]
Prolongation of APD90 [2]: about 30% | Prolongation of APD90 [3]: about 30% | Slope factor of FPD-ISI regression, % change ([1]; chromanol 293B 1 μM): 0.9162 | Slope factor of FPD-ISI regression, % change ([1]; chromanol 293B 30 μM): 0.9066 | Slope factor of FPD-ISI regression, absolute FPD (ms) ([1]; chromanol 293B 30 μM (sham 0.1674)): 0.4182 | Effect on FPD [1]: prolonged FPD in a concentration-dependent manner | Use (rate) dependence of FPD prolongation [1]: prolonged FPD in a rate-independent manner | Effect on effective refractory periods [4]: prolonged effective refractory periods in a rate-dependent manner

Preparations in absolute FPD category > 450 ms [1, 5]: 21%(5/24) | Preparations in absolute FPD category > 480 ms [1, 5]: 13%(3/24) | Preparations in absolute FPD category > 500 ms [1, 5]: 17%(4/24) | Preparations in absolute FPD category ≤ 450 ms [1, 5]: 50%(12/24) | Preparations in absolute FPD category > 450 ms [1, 6]: 17%(1/6) | Preparations in absolute FPD category > 480 ms [1, 6]: 17%(1/6) | Preparations in absolute FPD category > 500 ms [1, 6]: 50% (3/6) | Preparations in absolute FPD category ≤ 450 ms [1, 6]: 17%(1/6) | Preparations in absolute FPD category > 450 ms [1, 7]: 17%(1/6) | Preparations in absolute FPD category > 480 ms [1, 7]: 17%(1/6) | Preparations in absolute FPD category > 500 ms [1, 7]: 0% (0/6) | Preparations in absolute FPD category ≤ 450 ms [1, 7]: 67%(4/6) | Preparations in absolute FPD category > 450 ms [1, 8]: 17%(1/6) | Preparations in absolute FPD category > 480 ms [1, 8]: 17%(1/6) | Preparations in absolute FPD category > 500 ms [1, 8]: 17%(1/6) | Preparations in absolute FPD category ≤ 450 ms [1, 8]: 50% (3/6) | Preparations in absolute FPD category > 450 ms [1, 9]: 33%(2/6) | Preparations in absolute FPD category > 480 ms [1, 9]: 0% (0/6) | Preparations in absolute FPD category > 500 ms [1, 9]: 0% (0/6) | Preparations in absolute FPD category ≤ 450 ms [1, 9]: 67%(4/6) | Preparations in absolute FPD category > 450 ms [1, 10]: 38%(9/24) | Preparations in absolute FPD category > 480 ms [1, 10]: 17%(4/24) | Preparations in absolute FPD category > 500 ms [1, 10]: 29%(7/24) | Preparations in absolute FPD category ≤ 450 ms [1, 10]: 17% (4/24) | Preparations in absolute FPD category > 500 ms [1, 11]: 29% | Preparations with EAD/TA [1, 11]: no EAD/TAs were observed | Preparations in absolute FPD category > 450 ms [1, 12]: 0% (0/6) | Preparations in absolute FPD category > 480 ms [1, 12]: 50% (3/6) | Preparations in absolute FPD category > 500 ms [1, 12]: 50% (3/6) | Preparations in absolute FPD category ≤ 450 ms [1, 12]: 0% (0/6) | Preparations in absolute FPD category > 450 ms [1, 13]: 33%(2/6) | Preparations in absolute FPD category > 480 ms [1, 13]: 0% (0/6) | Preparations in absolute FPD category > 500 ms [1, 13]: 17%(1/6) | Preparations in absolute FPD category ≤ 450 ms [1, 13]: 50% (3/6) | Preparations in absolute FPD category > 450 ms [1, 14]: 50% (3/6) | Preparations in absolute FPD category > 480 ms [1, 14]: 0% (0/6) | Preparations in absolute FPD category > 500 ms [1, 14]: 33%(2/6) | Preparations in absolute FPD category ≤ 450 ms [1, 14]: 17%(1/6) | Preparations in absolute FPD category > 450 ms [1, 15]: 67%(4/6) | Preparations in absolute FPD category > 480 ms [1, 15]: 17%(1/6) | Preparations in absolute FPD category > 500 ms [1, 15]: 17%(1/6) | Preparations in absolute FPD category ≤ 450 ms [1, 15]: 0% (0/6) | Preparations in absolute FPD category > 450 ms [1, 16]: 4% (1/24) | Preparations in absolute FPD category > 480 ms [1, 16]: 13%(3/24) | Preparations in absolute FPD category > 500 ms [1, 16]: 71%(17/24) | Preparations in absolute FPD category ≤ 450 ms [1, 16]: 8% (2/24) | Preparations with EAD/TA [1, 16]: 4%(1/24) | Preparations in absolute FPD category > 500 ms ([1]; cisapride 30 nM, all 4 facilities, n=24, listed as cisapride): 71% | Number of preparations that showed EAD/TAs ([1]; cisapride 30 nM, all 4 facilities, of 24): 1 preparation | Preparations in absolute FPD category > 450 ms [1, 17]: 0% (0/6) | Preparations in absolute FPD category > 480 ms [1, 17]: 0% (0/6) | Preparations in absolute FPD category > 500 ms [1, 17]: 83%(5/6) | Preparations in absolute FPD category ≤ 450 ms [1, 17]: 0% (0/6) | Preparations with EAD/TA [1, 17]: 17%(1/6) | Preparations in absolute FPD category > 450 ms [1, 18]: 17%(1/6) | Preparations in absolute FPD category > 480 ms [1, 18]: 0% (0/6) | Preparations in absolute FPD category > 500 ms [1, 18]: 50% (3/6) | Preparations in absolute FPD category ≤ 450 ms [1, 18]: 33%(2/6) | Preparations in absolute FPD category > 450 ms [1, 19]: 0% (0/6) | Preparations in absolute FPD category > 480 ms [1, 19]: 33%(2/6) | Preparations in absolute FPD category > 500 ms [1, 19]: 67%(4/6) | Preparations in absolute FPD category ≤ 450 ms [1, 19]: 0% (0/6) | Preparations in absolute FPD category > 450 ms [1, 20]: 0% (0/6) | Preparations in absolute FPD category > 480 ms [1, 20]: 17%(1/6) | Preparations in absolute FPD category > 500 ms [1, 20]: 83%(5/6) | Preparations in absolute FPD category ≤ 450 ms [1, 20]: 0% (0/6) | Preparations in absolute FPD category > 450 ms [1, 21]: 0% (0/24) | Preparations in absolute FPD category > 480 ms [1, 21]: 0% (0/24) | Preparations in absolute FPD category > 500 ms [1, 21]: 8%(2/24) | Preparations in absolute FPD category ≤ 450 ms [1, 21]: 0% (0/24) | Preparations with EAD/TA [1, 21]: 92%(22/24) | Preparations with EAD/TA ([1]; cisapride 100 nM, all 4 facilities, n=24, listed as cisapride): 92% | Preparations with EAD/TA ([1]; cisapride 100 nM, facility A, n=6): 100%(6/6) | Preparations with EAD/TA ([1]; cisapride 100 nM, facility B, n=6): 100%(6/6) | Preparations with EAD/TA ([1]; cisapride 100 nM, facility C, n=6): 100%(6/6) | Preparations in absolute FPD category > 450 ms [1, 22]: 0% (0/6) | Preparations in absolute FPD category > 480 ms [1, 22]: 0% (0/6) | Preparations in absolute FPD category > 500 ms [1, 22]: 33%(2/6) | Preparations in absolute FPD category ≤ 450 ms [1, 22]: 0% (0/6) | Preparations with EAD/TA [1, 22]: 67%(4/6) | Preparations with EAD/TA ([1]; cisapride 300 nM, all 4 facilities, n=24): 100%(24/24) | Preparations with EAD/TA ([1]; cisapride 300 nM, facility D, n=6): 100%(6/6)
Compound: COc1cc(N)c(Cl)cc1C(=O)NC1CCN(CCCOc2ccc(F)cc2)CC1OC (stereo not drawn) [Cisapride, cisapride]
Delta FPDcF ([1]; categorical analysis, Fridericia correction, S5 Table): increased in a concentration-dependent manner | Delta FPD ([1]; categorical analysis, S4 Table): increased in a concentration-dependent manner | Slope factor of FPD-ISI regression, % change ([1]; cisapride 3 nM): 0.6124 | Slope factor of FPD-ISI regression, % change ([1]; cisapride 30 nM): 1.2274 | Slope factor of FPD-ISI regression, absolute FPD (ms) ([1]; cisapride 30 nM (sham 0.1204)): 0.1644 | Effect on FPD [1]: prolonged FPD in a concentration-dependent manner | Use (rate) dependence of FPD prolongation [1]: induced FPD prolongation in a reverse use-dependent manner
